Experimental data as given in paper PMC7067850, “Identification of highly potent and selective inhibitor, TIPTP, of the p22phox-Rubicon axis as a therapeutic agent for rheumatoid arthritis” (Scientific Reports, 2020).

Tested on: collagen-induced arthritis
Assay: Collagen-induced arthritis (CIA) mouse model
Type: in vivo
Experimental: The collagen-induced arthritis mouse model was established as previously described. Briefly, male DBA/1 J mice (6 − 8-weeks-old) were obtained from Beijing Vital River Laboratory Animal Technology Co., Ltd. (Charles River Laboratories department in Beijing, China), and kept under specific pathogen-free conditions. Chick collagen type II (Chondrex, Redmond, Washington, USA) was dissolved in 0.05 M acetic acid to a concentration of 2 mg/mL and emulsified with a complete Freund’s adjuvant (2 mg/mL M. tuberculosis H37Ra, Chondrex). At the beginning of the experiments (day 0), the mice were immunized with a 0.1 mL emulsion containing 100 μg of collagen at the tail base with a glass syringe and 25-G needles and then administered a booster (on day 21) with the same preparation of collagen and incomplete Freund’s adjuvant (Chondrex).
Cell culture supernatants, mice sera and synovial fluid were analyzed for cytokine content using the BD OptEIA ELISA set (BD Pharmingen) for the detection of TNF-α, IL-6, IL-1β, and IL-18. All assays were performed as recommended by the manufacturer.
Intracellular ROS levels were measured by flow cytometry from cells cultured in serum-free medium and loaded with the redox-sensitive dye 2 µM dihydroethidium (DHE for O2^−; Calbiochem) or 10 µM 2′,7′-Dichlorofluorescin diacetate (DCFH-DA for H2O2; Calbiochem)[18],[19]. The cells were thoroughly and quickly washed with pulse spin and immediately acquired for analyses in FACSCalibur (BD Biosciences, San Jose, CA). The data were plotted using CellQuest software (BD Biosciences).
Figure 4 TIPTP protects mice from CIA mice. (a) Schematic of the CIA model treated with TIPTP (upper). FACS analysis for superoxide and hydrogen peroxide from synovial fluid containing synoviocytes from CIA (lower). (b) Representative H&E staining of the ankle joints of each group were determined at 4 wks of CIA (left). Clinical arthritis score and swelling of paws (right) from ten mice per group. Scale bars: 500 μm. Serum (c) and Synovial fluid (d) were harvested at 4 wks of CIA and analyzed for cytokines by ELISA. […]
Arthritis mice were evaluated for disease progression three times a week as follows ^1,2. Each limb was scored according to the severity of inflammation, where 0 : no evidence of redness or swelling, 1 : redness and slight swelling confined to the tarsal joints or ankle, 2 : redness and mild swelling extending from the ankle to the tarsal joints, 3 : redness and moderate swelling extending from the ankle to the metatarsal joints, and 4 : severe swelling encompassing the ankle, foot, and digits, or ankylosis of the limb. […]

SMILES: C[C@@H](Oc1cccc(-n2cc3c(n2)CCCC3)c1)C(=O)Nc1nnc(C(F)(F)F)s1 [TIPTP, (R)-2-(3-(4,5,6,7-tetrahydro-2H-indazol-2-yl)phenoxy)-N-(5-(trifluoromethyl)-1,3,4-thiadiazol-2-yl)propanamide]
- severity of RA (clinical parameters, paw thickness, histology) vs vehicle-treated CIA mice (CIA mice (Fig. 4b, Supplemental Fig. 6a)): markedly lower
- serum and synovial fluid concentrations of TNF-α, IL-6, IL-1β, and IL-18 (CIA mice, 4 wks, ELISA (Fig. 4c,d)): significantly attenuated
- production of ROS by synovial tissues (CIA mice, dose-dependent (Fig. 4a)): significantly attenuated
- binding of p22phox with Rubicon protein in synoviocytes (synoviocytes from CIA mice, co-IP (Fig. 4e)): markedly decreased
